This passage reports IC50 results from patent US10308639B2, “Phosphatidylinositol 3-kinase inhibitors” (Gilead Sciences, Inc., priority 2014, dated 2019).

Each structure is given as a SMILES string. pIC50: −log10 of the molar value.

Holding throughout (assay type): biochemical
The target in one assay is T1, PI3Kβ (Homo sapiens, UniProt P42338).
T1 construct: made in house
The assay is described as follows: TR-FRET enzymatic activity assay, PI3Kβ. The conditions noted are these: Table 2a; same assay. On the technique in general: Time-resolved FRET reads energy transfer from a long-lived donor to a nearby acceptor.

The next assay addresses T2, PI3Kδ (Homo sapiens, UniProt O00329).
T2 construct: made in house
The assay is described as follows: TR-FRET enzymatic activity assay, PI3Kδ. The conditions noted are these: Table 2a; same assay.

The target of a further assay is T3, PI3Kγ (Homo sapiens, UniProt P48736).
T3 construct: made in house
T3 sequence (P48736 whole entry): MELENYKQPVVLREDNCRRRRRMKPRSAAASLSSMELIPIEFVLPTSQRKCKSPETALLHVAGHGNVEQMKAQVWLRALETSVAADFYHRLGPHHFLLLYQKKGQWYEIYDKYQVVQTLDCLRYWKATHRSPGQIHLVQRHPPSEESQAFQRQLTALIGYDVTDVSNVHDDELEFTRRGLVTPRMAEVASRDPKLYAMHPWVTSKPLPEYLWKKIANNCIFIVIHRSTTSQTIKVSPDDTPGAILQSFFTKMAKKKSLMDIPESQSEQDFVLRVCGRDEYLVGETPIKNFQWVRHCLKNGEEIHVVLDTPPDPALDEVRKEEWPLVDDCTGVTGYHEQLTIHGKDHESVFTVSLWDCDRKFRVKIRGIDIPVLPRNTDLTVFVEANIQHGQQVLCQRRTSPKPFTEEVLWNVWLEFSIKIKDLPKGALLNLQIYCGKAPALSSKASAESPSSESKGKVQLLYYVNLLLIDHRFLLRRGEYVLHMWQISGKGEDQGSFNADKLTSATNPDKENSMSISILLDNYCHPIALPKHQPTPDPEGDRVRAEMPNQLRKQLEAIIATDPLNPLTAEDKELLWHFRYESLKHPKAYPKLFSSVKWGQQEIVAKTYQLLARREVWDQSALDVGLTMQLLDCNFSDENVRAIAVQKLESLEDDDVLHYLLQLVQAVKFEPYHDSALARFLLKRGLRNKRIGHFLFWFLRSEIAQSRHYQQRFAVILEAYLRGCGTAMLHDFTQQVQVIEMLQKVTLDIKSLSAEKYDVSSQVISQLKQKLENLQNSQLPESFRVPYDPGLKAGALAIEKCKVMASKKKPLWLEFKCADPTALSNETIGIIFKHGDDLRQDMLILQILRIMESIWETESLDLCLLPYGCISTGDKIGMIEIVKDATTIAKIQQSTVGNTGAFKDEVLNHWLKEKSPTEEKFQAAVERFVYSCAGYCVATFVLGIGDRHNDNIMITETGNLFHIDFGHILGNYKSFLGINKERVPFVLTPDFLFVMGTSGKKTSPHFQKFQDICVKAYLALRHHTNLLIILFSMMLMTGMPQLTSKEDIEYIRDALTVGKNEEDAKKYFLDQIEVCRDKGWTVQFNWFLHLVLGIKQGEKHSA
Description: TR-FRET enzymatic activity assay, PI3Kγ. The conditions noted are these: Table 2a; same assay; read-out: PI3Kγ IC50. Put shortly:
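Enzymatic activity against the PI3K isoforms was measured using a time-resolved fluorescence resonance energy transfer (TR-FRET) assay.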

T2 sequence (O00329 whole entry): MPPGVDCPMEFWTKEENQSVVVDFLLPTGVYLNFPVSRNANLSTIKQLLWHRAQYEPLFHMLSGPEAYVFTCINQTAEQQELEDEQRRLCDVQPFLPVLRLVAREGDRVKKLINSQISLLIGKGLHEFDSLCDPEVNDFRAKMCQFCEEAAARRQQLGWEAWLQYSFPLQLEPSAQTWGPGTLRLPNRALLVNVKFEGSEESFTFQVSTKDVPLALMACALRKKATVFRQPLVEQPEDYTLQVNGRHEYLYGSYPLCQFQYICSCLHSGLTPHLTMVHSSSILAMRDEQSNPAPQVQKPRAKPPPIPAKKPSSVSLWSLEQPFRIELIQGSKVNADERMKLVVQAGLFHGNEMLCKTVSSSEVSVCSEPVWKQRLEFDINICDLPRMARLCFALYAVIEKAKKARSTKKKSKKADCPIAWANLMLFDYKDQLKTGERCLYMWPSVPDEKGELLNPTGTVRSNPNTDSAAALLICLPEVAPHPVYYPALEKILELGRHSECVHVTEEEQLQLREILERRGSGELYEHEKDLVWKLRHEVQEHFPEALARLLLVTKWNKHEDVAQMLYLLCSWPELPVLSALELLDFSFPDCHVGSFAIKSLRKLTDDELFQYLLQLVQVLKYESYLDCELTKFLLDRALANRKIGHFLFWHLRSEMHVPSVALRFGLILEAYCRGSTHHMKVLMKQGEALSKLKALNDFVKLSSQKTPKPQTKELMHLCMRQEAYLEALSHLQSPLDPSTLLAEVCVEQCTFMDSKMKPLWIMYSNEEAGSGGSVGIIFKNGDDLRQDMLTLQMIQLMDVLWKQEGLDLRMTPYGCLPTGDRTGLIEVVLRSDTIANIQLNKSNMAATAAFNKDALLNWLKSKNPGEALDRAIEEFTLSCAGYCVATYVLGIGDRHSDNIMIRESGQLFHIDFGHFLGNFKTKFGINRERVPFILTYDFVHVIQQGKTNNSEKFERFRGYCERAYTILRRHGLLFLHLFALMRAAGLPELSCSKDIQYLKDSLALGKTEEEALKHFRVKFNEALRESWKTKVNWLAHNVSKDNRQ
T2 sequence (P27986 whole entry partner): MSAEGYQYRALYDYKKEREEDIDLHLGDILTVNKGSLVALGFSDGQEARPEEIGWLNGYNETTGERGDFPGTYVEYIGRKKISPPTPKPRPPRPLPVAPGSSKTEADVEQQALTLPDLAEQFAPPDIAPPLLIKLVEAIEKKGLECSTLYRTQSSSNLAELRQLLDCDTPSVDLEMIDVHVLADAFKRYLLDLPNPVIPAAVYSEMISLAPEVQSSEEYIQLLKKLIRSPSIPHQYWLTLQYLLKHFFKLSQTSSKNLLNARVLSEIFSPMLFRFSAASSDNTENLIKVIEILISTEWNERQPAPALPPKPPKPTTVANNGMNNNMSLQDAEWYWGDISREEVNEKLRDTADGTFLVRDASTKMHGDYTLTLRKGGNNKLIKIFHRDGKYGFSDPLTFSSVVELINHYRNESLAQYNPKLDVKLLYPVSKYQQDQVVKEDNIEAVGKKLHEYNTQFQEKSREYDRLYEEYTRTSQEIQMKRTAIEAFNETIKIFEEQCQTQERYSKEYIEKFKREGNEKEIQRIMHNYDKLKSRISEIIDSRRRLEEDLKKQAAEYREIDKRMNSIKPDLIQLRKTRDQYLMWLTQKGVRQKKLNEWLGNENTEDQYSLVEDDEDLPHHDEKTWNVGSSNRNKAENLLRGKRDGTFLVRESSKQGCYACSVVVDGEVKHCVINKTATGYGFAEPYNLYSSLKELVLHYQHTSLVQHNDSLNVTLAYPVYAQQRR
T1 sequence (P42338 whole entry): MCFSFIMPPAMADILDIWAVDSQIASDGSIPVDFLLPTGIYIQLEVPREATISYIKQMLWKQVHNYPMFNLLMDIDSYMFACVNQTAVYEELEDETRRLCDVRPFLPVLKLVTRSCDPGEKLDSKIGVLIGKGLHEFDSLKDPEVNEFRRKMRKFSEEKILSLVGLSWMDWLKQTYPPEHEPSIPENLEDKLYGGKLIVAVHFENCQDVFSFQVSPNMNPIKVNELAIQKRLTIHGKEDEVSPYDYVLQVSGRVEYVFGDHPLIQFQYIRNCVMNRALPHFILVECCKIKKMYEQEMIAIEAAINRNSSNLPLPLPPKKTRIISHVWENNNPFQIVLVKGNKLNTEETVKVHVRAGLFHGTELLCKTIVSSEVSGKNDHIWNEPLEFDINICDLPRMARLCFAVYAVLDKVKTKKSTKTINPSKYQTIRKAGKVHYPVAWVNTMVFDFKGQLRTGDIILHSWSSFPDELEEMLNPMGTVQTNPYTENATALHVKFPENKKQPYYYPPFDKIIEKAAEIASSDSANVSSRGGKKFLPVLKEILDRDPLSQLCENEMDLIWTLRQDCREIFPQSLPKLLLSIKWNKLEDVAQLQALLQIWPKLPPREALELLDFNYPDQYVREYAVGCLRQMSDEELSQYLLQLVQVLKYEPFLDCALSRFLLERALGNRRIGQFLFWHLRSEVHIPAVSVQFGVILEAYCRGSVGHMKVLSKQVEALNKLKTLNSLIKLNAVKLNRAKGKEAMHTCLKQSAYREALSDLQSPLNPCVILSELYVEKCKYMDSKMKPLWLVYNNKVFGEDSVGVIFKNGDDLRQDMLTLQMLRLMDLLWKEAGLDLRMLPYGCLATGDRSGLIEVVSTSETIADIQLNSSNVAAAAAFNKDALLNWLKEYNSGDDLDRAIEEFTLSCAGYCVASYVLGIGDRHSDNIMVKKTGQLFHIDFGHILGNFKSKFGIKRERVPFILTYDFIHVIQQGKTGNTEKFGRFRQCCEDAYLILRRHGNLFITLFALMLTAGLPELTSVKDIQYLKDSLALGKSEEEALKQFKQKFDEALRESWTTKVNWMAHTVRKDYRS
T1 sequence (P27986 whole entry partner): as the sequence (P27986 whole entry partner) above

The pIC50 is the IC50 on a negative log10 scale, so that one unit is a factor of ten. For the molecule `C[C@H](Nc1nc(N)nc(N)c1C#N)c1nc2cc(F)cc(Cl)c2c(=O)n1-c1cc[nH]n1` [Compound 237, (S)-2,4-diamino-6-((1-(5-chloro-7-fluoro-4-oxo-3-(1H-pyrazol-3-yl)-3,4-dihydroquinazolin-2-yl)ethyl)amino)pyrimidine-5-carbonitrile], the pIC50 was 8.70 at PI3Kβ, 8.70 on PI3Kδ and 5.85 on PI3Kγ.
In the case of `C[C@H](Nc1nc(N)nc(N)c1Cl)c1nc2cc(F)cc(Cl)c2c(=O)n1-c1cc[nH]n1` [Compound 238, (S)-5-chloro-2-(1-((2,6-diamino-5-chloropyrimidin-4-yl)amino)ethyl)-7-fluoro-3-(1H-pyrazol-3-yl)quinazolin-4(3H)-one], the pIC50 was 7.68 against PI3Kβ, 7.82 against PI3Kδ and less than 5.00 at PI3Kγ.
Consider `N#Cc1c(N)nc(N)nc1N[C@H](c1nc2cc(F)cc(Cl)c2c(=O)n1-c1cc[nH]n1)C1CC1` [Compound 239, (S)-2,4-diamino-6-(((5-chloro-7-fluoro-4-oxo-3-(1H-pyrazol-3-yl)-3,4-dihydroquinazolin-2-yl)(cyclopropyl)methyl)amino)pyrimidine-5-carbonitrile], for which the pIC50 on PI3Kβ is 8.52; on PI3Kδ, 8.40; on PI3Kγ it was 5.57.
Consider `Nc1nc(N)c(Cl)c(N[C@H](c2nc3cc(F)cc(Cl)c3c(=O)n2-c2cc[nH]n2)C2CC2)n1` [Compound 240, (S)-5-chloro-2-(cyclopropyl((2,6-diamino-5-chloropyrimidin-4-yl)amino)methyl)-7-fluoro-3-(1H-pyrazol-3-yl)quinazolin-4(3H)-one], for which the pIC50 at PI3Kβ is 7.00; at PI3Kδ, 7.38; at PI3Kγ, less than 5.00.
For the molecule `Cc1c[nH]nc1-n1c([C@@H](Nc2nc(N)nc(N)c2C#N)C2CC2)nc2c(C#N)cccc2c1=O` [Compound 241, (S)-2-(cyclopropyl((2,6-diamino-5-cyanopyrimidin-4-yl)amino)methyl)-3-(4-methyl-1H-pyrazol-3-yl)-4-oxo-3,4-dihydroquinazoline-8-carbonitrile], the pIC50 against PI3Kβ is 7.03; against PI3Kδ it was 8.15; on PI3Kγ it was less than 5.00.
On the same counts, the results for `Cc1c[nH]nc1-n1c([C@@H](Nc2nc(N)nc(Cl)c2C#N)C2CC2)nc2cccc(Cl)c2c1=O` [Compound 243, (S)-2-amino-4-chloro-6-(((5-chloro-3-(4-methyl-1H-pyrazol-3-yl)-4-oxo-3,4-dihydroquinazolin-2-yl)(cyclopropyl)methyl)amino)pyrimidine-5-carbonitrile] are 6.70, 7.47 and 5.51.
`Cc1c[nH]nc1-n1c([C@@H](Nc2nc(N)nc(C)c2C#N)C2CC2)nc2cccc(Cl)c2c1=O` [Compound 244, (S)-2-amino-4-(((5-chloro-3-(4-methyl-1H-pyrazol-3-yl)-4-oxo-3,4-dihydroquinazolin-2-yl)(cyclopropyl)methyl)amino)-6-methylpyrimidine-5-carbonitrile]: the pIC50 on PI3Kβ is 7.51; against PI3Kδ it was 8.10; at PI3Kγ it was 6.02.
Take `CC[C@H](Nc1nc(N)nc(N)c1C#N)c1nc2cccc(C3CC3)c2c(=O)n1-c1cc[nH]n1` [Compound 245, (S)-2,4-diamino-6-((1-(5-cyclopropyl-4-oxo-3-(1H-pyrazol-3-yl)-3,4-dihydroquinazolin-2-yl)propyl)amino)pyrimidine-5-carbonitrile]: the pIC50 at PI3Kβ was 8.40; against PI3Kδ it was 8.22; at PI3Kγ, 6.43.
For `Cc1c[nH]nc1-n1c([C@@H](Nc2nc(N)nc(Cl)c2C#N)C2CC2)nc2c(C#N)cccc2c1=O` [Compound 246, (S)-2-(((2-amino-6-chloro-5-cyanopyrimidin-4-yl)amino)(cyclopropyl)methyl)-3-(4-methyl-1H-pyrazol-3-yl)-4-oxo-3,4-dihydroquinazoline-8-carbonitrile] the same measures were 6.49, 7.44 and less than 5.00.
On the same counts, the results for `Cc1c[nH]nc1-n1c([C@@H](Nc2nc(N)nc(N)c2C#N)C2CC2)nc2cccc(Cl)c2c1=O` [Compound 247, (S)-2,4-diamino-6-(((5-chloro-3-(4-methyl-1H-pyrazol-3-yl)-4-oxo-3,4-dihydroquinazolin-2-yl)(cyclopropyl)methyl)amino)pyrimidine-5-carbonitrile] are 7.15, 8.40 and 6.14.
Regarding `Cc1c[nH]nc1-n1c([C@@H](Nc2nc(N)nc(N)c2Cl)C2CC2)nc2cccc(Cl)c2c1=O` [Compound 248, (S)-5-chloro-2-(cyclopropyl((2,6-diamino-5-chloropyrimidin-4-yl)amino)methyl)-3-(4-methyl-1H-pyrazol-3-yl)quinazolin-4(3H)-one], the pIC50 at PI3Kβ was 6.19; against PI3Kδ it was 7.35; on PI3Kγ, 5.07.
Turning to `CCC[C@H](Nc1nc(N)nc(N)c1C#N)c1nc2cccc(Cl)c2c(=O)n1-c1cn[nH]c1` [Compound 249, (S)-2,4-diamino-6-((1-(5-chloro-4-oxo-3-(1H-pyrazol-4-yl)-3,4-dihydroquinazolin-2-yl)butyl)amino)pyrimidine-5-carbonitrile], the pIC50 at PI3Kβ is 8.52; at PI3Kδ, 9.00; at PI3Kγ, 6.80.
For `CCC[C@H](Nc1nc(N)nc(N)c1Cl)c1nc2cccc(Cl)c2c(=O)n1-c1cn[nH]c1` [Compound 250, (S)-5-chloro-2-(1-((2,6-diamino-5-chloropyrimidin-4-yl)amino)butyl)-3-(1H-pyrazol-4-yl)quinazolin-4(3H)-one] the same measures were 6.80, 7.64 and 5.69.
Consider `CCC[C@H](Nc1nc(N)nc(N)c1C#N)c1nc2c(Cl)ccc(Cl)c2c(=O)n1-c1cn[nH]c1` [Compound 251, (S)-2,4-diamino-6-((1-(5,8-dichloro-4-oxo-3-(1H-pyrazol-4-yl)-3,4-dihydroquinazolin-2-yl)butyl)amino)pyrimidine-5-carbonitrile], for which the pIC50 is 8.00 against PI3Kβ, 8.70 against PI3Kδ and 6.11 on PI3Kγ.
Regarding `CCC[C@H](Nc1nc(N)nc(N)c1Cl)c1nc2c(Cl)ccc(Cl)c2c(=O)n1-c1cn[nH]c1` [Compound 252, (S)-5,8-dichloro-2-(1-((2,6-diamino-5-chloropyrimidin-4-yl)amino)butyl)-3-(1H-pyrazol-4-yl)quinazolin-4(3H)-one], the pIC50 is 6.04 on PI3Kβ, 7.12 against PI3Kδ and less than 5.00 on PI3Kγ.
On to `CCC[C@H](Nc1nc(N)nc(N)c1C#N)c1nc2cccc(Cl)c2c(=O)n1-c1cc[nH]n1` [Compound 253, (S)-2,4-diamino-6-((1-(5-chloro-4-oxo-3-(1H-pyrazol-3-yl)-3,4-dihydroquinazolin-2-yl)butyl)amino)pyrimidine-5-carbonitrile], for which the negative-log IC50 (pIC50) on PI3Kβ was 8.40; on PI3Kδ, 9.00; on PI3Kγ it was 6.49.
As for `CCC[C@H](Nc1nc(N)nc(N)c1C#N)c1nc2c(Cl)ccc(Cl)c2c(=O)n1-c1cc[nH]n1` [Compound 254, (S)-2,4-diamino-6-((1-(5,8-dichloro-4-oxo-3-(1H-pyrazol-3-yl)-3,4-dihydroquinazolin-2-yl)butyl)amino)pyrimidine-5-carbonitrile], the results for the pIC50 on PI3Kβ, against PI3Kδ and at PI3Kγ were 8.70, 8.70 and 5.85, respectively.
As to `CCC[C@H](Nc1nc(N)nc(N)c1Cl)c1nc2c(Cl)ccc(Cl)c2c(=O)n1-c1cc[nH]n1` [Compound 255, (S)-5,8-dichloro-2-(1-((2,6-diamino-5-chloropyrimidin-4-yl)amino)butyl)-3-(1H-pyrazol-3-yl)quinazolin-4(3H)-one], the pIC50 was 6.82 against PI3Kβ, 7.52 at PI3Kδ and less than 5.00 at PI3Kγ.
Turning to `CC[C@H](Nc1nc(N)nc(N)c1C#N)c1nc2c(Cl)cc(F)cc2c(=O)n1-c1cc[nH]n1` [Compound 258, (S)-2,4-diamino-6-((1-(8-chloro-6-fluoro-4-oxo-3-(1H-pyrazol-3-yl)-3,4-dihydroquinazolin-2-yl)propyl)amino)pyrimidine-5-carbonitrile], the pIC50 against PI3Kβ was 8.15; at PI3Kδ, 8.52; on PI3Kγ it was 5.41.
For `C[C@H](Nc1nc(N)nc(N)c1Cl)c1nc2ccc(F)c(Cl)c2c(=O)n1-c1cc[nH]n1` [Compound 259, (S)-5-chloro-2-(1-((2,6-diamino-5-chloropyrimidin-4-yl)amino)ethyl)-6-fluoro-3-(1H-pyrazol-3-yl)quinazolin-4(3H)-one], the pIC50 against PI3Kβ was 7.68; at PI3Kδ it was 8.22; on PI3Kγ, 5.46.
`C[C@H](Nc1nc(N)nc(N)c1C#N)c1nc2ccc(F)c(Cl)c2c(=O)n1-c1cc[nH]n1` [Compound 260, (S)-2,4-diamino-6-((1-(5-chloro-6-fluoro-4-oxo-3-(1H-pyrazol-3-yl)-3,4-dihydroquinazolin-2-yl)ethyl)amino)pyrimidine-5-carbonitrile]: the pIC50 was 8.70 at PI3Kβ, 9.15 at PI3Kδ and 6.66 on PI3Kγ.
For `Nc1nc(N)c(Cl)c(N[C@H](c2nc3ccc(F)c(Cl)c3c(=O)n2-c2cc[nH]n2)C2CC2)n1` [Compound 261, (S)-5-chloro-2-(cyclopropyl((2,6-diamino-5-chloropyrimidin-4-yl)amino)methyl)-6-fluoro-3-(1H-pyrazol-3-yl)quinazolin-4(3H)-one] the same measures were 7.31, 7.92 and 5.28.
For `N#Cc1c(N)nc(N)nc1N[C@H](c1nc2ccc(F)c(Cl)c2c(=O)n1-c1cc[nH]n1)C1CC1` [Compound 262, (S)-2,4-diamino-6-(((5-chloro-6-fluoro-4-oxo-3-(1H-pyrazol-3-yl)-3,4-dihydroquinazolin-2-yl)(cyclopropyl)methyl)amino)pyrimidine-5-carbonitrile] the same measures were 8.30, 9.00 and 6.39.
